Test results reported in patent US11299515B2, “Optimized peptides for targeting human nerves and their use in image guided surgery, diagnostics and therapeutic” (The Regents of the University of California, priority 2017, dated 2022).
Entries after “also recorded” stand apart in the source; their conditions may differ. Residues, ends and D or L forms follow the SMILES beside them. *: point of attachment. Fluorescein(5-Mal) = O=C1OC2(c3ccc(O)cc3Oc3cc(O)ccc32)c2ccc(N3C(=O)CC(*)C3=O)cc21

Columns and labels:
[1] = tested on: mouse facial nerve; assay: Topical application on ex-vivo mouse facial nerve with surrounding muscle; assay type: binding; conditions: 375 and 100 μM topical
[2] = tested on: sciatic nerve; assay type: in vivo, mice; conditions: 450 nmols i.v., SKH1 mice
Procedure: Either 150 or 450 nmoles of fluorescein labeled synthetic peptides were injected intravenously into mice. After a 2 hour waiting period for washout of nonspecific binding, mice were anesthetized and skin incisions were made over the dorsal surface of the hind legs to expose the sciatic nerve. Brightfield and fluorescent images were obtained with a dissecting microscope using Metamorph software (FIG. 1). Quantitation of fluorescence of nerves and adjacent non-nerve tissue was performed with Image J (FIG. 2). Peptides were also topically applied to human nerve sections. Nerves were freshly frozen in OTC prior to sectioning. Peptides were topically applied at concentration at 300 uM with images being shown for HNP401, HNP402, HNP404 and previous reported nerve binding peptides NP41 (FIG. 3)). Also shown are images for variants HNP301 ([…]) and NP124. NP713 was also tested and has not reported in a publication. NP713, is a derivative of NP41 with sequence […] that was enriched after 7 rounds of selection against mouse tissue, and was also found after 4 rounds of selection against human tissue. […] All D-amino acid controls for NP-41 and NP713 and non peptide conjugated carboxyfluorescein, are also shown. […] HNP401 was then tested for labeling of rat sciatic and rat prostate cavernosal nerve in-vivo. […] FIGS. 6 and 7 show in-vivo labeling of rat prostate cavernosal nerve with comparison to white light visualization.
Following anesthesia with intra-peritoneal injection of ketamine (80 mg/kg) and midazolam (40 mg/kg), FAM-NP41 or its variants were administered into mice retro-orbitally. After a washout period of 2-4 hours, the animals were anesthetized with ketamine (50 mg/ml) and xylazine (20 mg/ml). The bladder and prostate were exposed through a midline abdominal incision. The autonomic nerve along the cavernosal vessel in the prostate was imaged and recorded using a custom-made surgical imaging system. This system is a modified from Olympus MVX10 scope capable of hi-resolution fluorescence, RGB reflectance and realtime overlay with zoom from 0.6 to 5.7 cm field of view. Image) was used for quantitative analysis of nerve contrast for each peptide dye conjugate tested. Images of autonomic nerve in prostate were selected from the recorded files and magnified 300-400% prior to selection of ROI and measurement. Nerves and adjacent non-nerve tissues ROIs were hand-selected using polygonal selection tool at the same location from both of reflectance and fluorescence images. The mean and standard deviation of the pixel intensities within the selected areas were compared for nerves (mean=In, SD=σn) and adjacent background tissue (mean=Ib, SD=σb). Nerve to non-nerve contrast was calculated after background subtraction with formula |In−Ib|/(σn^2+σm^2)^0.5. For imaging the nerves in the prostate gland of male rats peptide dye conjugate were injected retro-orbitally. FAM-HNP401 was injected at a concentration of 13 mgs/kg followed by imaging after 15 minutes or alternatively a dose of 52 mgs/kg was used with imaging after 3 hours. Live animal surgery was performed under a ketamine-xylazine cocktail according to IACUC protocol. Sterile technique was used to expose the prostate; bladder was drained with a small syringe and sutured. The surgical field was washed with sterile saline prior to imaging. Mann-Whitney test was used to analyze data for both mice and rats to compare nerve intensity and nerve to non-nerve contrast between white light reflectance and fluorescence.

[3] = tested on: human sural nerve; assay: Topical application of FAM-labelled peptides on human nerve sections; assay type: binding
Source text: To determine the affinity of phage selected peptides for binding to human nerve they were chemically synthesized by solid-phase synthesis and labeled with fluorescein at the C-terminus via a GGC linker. Peptides were topically applied to sectioned human sural nerve and human temporalis muscle to determine nerve to muscle contrast. […] To confirm binding and contrast of HNP401 for additional nerve types binding was compared in nerve and muscle with both HNP401 and NP41 on facial brachial plexus nerve (FIG. 9). […] FAM-HNP401 was additionally tested topically on ex-vivo tissue for labeling of mouse facial nerve with surrounding muscle (FIG. 10, J-M).
To test the affinity of selected phage display peptides for binding to human nerves, they were chemically synthesized by solid-phase synthesis and labeled with fluorescein at the C-terminus. Peptides were topically applied to sections of surgically harvested human sural nerve and temporalis muscle to determine nerve to muscle contrast for selected peptides and controls (FIG. 23). […] To quantify differential binding to nerve versus muscle, fluorescence signal intensity was measured for ROIs from the perineurium of select nerves and human temporalis muscle.
Human sural nerve, antebrachial nerve and laryngeal nerve and temporalis muscle were obtained under IRB protocol number 130837 for Dr. Quyen Nguyen. Human peripheral nerves (typically sural) were obtained from patients undergoing nerve resection procedures. Human nerves from prostate gland of two patients were acquired under Moores Cancer Centre Biorepository IRB protocol number 090401. Tissue were sectioned and mounted on glass slides or Cryojane tape. Tissue sections were placed in a humidifier chamber for 30 min before application of the peptide solution. Peptides were diluted to appropriate concentration in 0.5×HBSS prior to topical application. 50 μl of peptide solution of with known concentration (1 μM to 375 μM) were applied to 10 μm nerve sections on tape or slides and incubated for 30 minutes in a humidifier chamber. After incubation with peptide nerve sections were washed with twice with 0.5×HBSS and once with 1×PBS. A cover-slip was applied and slides were imaged immediately on either a Zeiss Lumar dissecting scope of Nikon A1 confocal microscope. For confocal imaging tissue sections of 10 μm thickness were imaged with 488 nm laser excitation 515 (25) and a 10× air objective and a […] size. For immunohistochemistry the confocal Images were acquired with a 20× air objective at 0.4 μm/pixel.
Image J was used to analyze and compare images acquired using the confocal microscope and the Lumar dissecting scope. For each experimental set where probes were compared, we kept the acquisition parameters identical so as to directly compare the data obtained. […] All raw image files for a given experimental cohort were loaded at the same time into Image J as 16-bit tiff images. We then levelled the image for tissue treated with FAM-HNP401. Once these levels were set, the settings are propagated to all images in one step using Image J. The brightest image is set as the benchmark for all other images in the cohort to avoid saturating when the leveling is propagated.

## CC(=O)N[C@@H](CO)C(=O)NCC(=O)N[C@@H](CCC(N)=O)C(=O)N[C@H](C(=O)N1CCC[C@H]1C(=O)N[C@@H](Cc1c[nH]c2ccccc12)C(=O)N[C@@H](CCC(=O)O)C(=O)N[C@@H](CCC(=O)O)C(=O)N1CCC[C@H]1C(=O)N[C@@H](Cc1ccc(O)cc1)C(=O)N[C@@H](Cc1ccc(O)cc1)C(=O)N[C@H](C(=O)N[C@H](C(=O)N[C@@H](CCCCN)C(=O)N[C@@H](CCCCN)C(=O)N[C@@H](CO)C(=O)N[C@@H](CO)C(=O)NCC(=O)NCC(=O)N[C@@H](CSC1CC(=O)N(c2ccc3c(c2)C(=O)OC32c3ccc(O)cc3Oc3cc(O)ccc32)C1=O)C(N)=O)C(C)C)C(C)C)C(C)C (stereo partly drawn) [FAM-HNP401] (Ac-SGQVPWEEPYYVVKKSSGGC(Fluorescein(5-Mal))-NH2; N-terminus and C-terminus assumed)
[1]
  labeling of mouse facial nerve versus surrounding muscle: poor contrast; also recorded: did not perform as well as FAM-NP41
[2]
  signal intensity for in-vivo binding to mouse sciatic nerve compared to FAM-NP41: 2.3 ×
[2]; 2 h post injection
  sciatic nerve fluorescent intensity compared to NP41: 2.3 fold
[2]; mouse thigh
  nerve to surrounding muscle contrast: 5.79±0.81
[3]; 100 μM topical, human sural nerve
  fluorescent signal intensity compared to FAM-NP41: 10.9 ×
[3]; 100 μM topical, n=4
  fluorescent signal intensity (ROIs of perineurium): 1374.44±425.96
[3]; 100 μM topical, sural nerve and temporalis muscle
  binding / contrast among peptides and controls screened on human nerve: highest contrast
[3]; human sural nerve vs human temporalis muscle, 100 μM topical, n=4
  Nerve to muscle contrast: 3.03±0.57
[3]; topical, human nerve
  signal for binding human nerve compared to FAM-NP41: 10 fold
